Data from US20160158317A1, “Antimicrobial Peptide Variants and Polynucleotides Encoding Same” (Adenium Biotech A/S, priority 2010, published 2016).
Where a SMILES comes first, the peptide text is derived from it. Bridges are numbered along the chain shown (N, C = ends).

Test: Determination of the protein binding (90% serum, 30 kDa filter, HPLC)
Format: in vitro ADME
Details: serum
Procedure: Protein binding assays were performed as follows. The purified peptides were mixed with 90% serum and centrifuged through a 30 kDa filter. The ultra-filtrate and the non filtrated serum samples were quantified by HPLC measurements and the protein binding was subsequently calculated.

SMILES | fraction unbound
CC(C)[C@@H]1NC(=O)[C@@H]2CSSC[C@H](NC(=O)[C@H](CCCCN)NC(=O)[C@H](CCCNC(=N)N)NC(=O)[C@H](C)NC(=O)CNC(=O)[C@H](CC(N)=O)NC(=O)[C@H](CCCNC(=N)N)NC(=O)[C@H](Cc3ccc(O)cc3)NC1=O)C(=O)N[C@@H](Cc1ccc(O)cc1)C(=O)N[C@@H](CCCNC(=N)N)C(=O)N[C@@H](CCCNC(=N)N)C(=O)N[C@H](C(=O)N[C@@H](CC(N)=O)C(=O)O)CSSC[C@H](NC(=O)[C@H](Cc1ccccc1)NC(=O)CN)C(=O)N[C@@H](Cc1c[nH]c3ccccc13)C(=O)N[C@@H](CCCNC(=N)N)C(=O)N[C@@H](C(C)C)C(=O)N2 [compound 313] (H-GFCWRVCVYRNGARKCYRRCN-OH; disulfide 3-20, 7-16 (inferred); N-terminus and C-terminus assumed) | 0.02
CC(C)[C@@H]1NC(=O)CNC(=O)[C@H](CC(N)=O)NC(=O)[C@H](CCCNC(=N)N)NC(=O)[C@H](Cc2ccc(O)cc2)NC(=O)[C@H](C(C)C)NC(=O)[C@@H]2CSSC[C@H](NC(=O)[C@H](CCCCN)NC(=O)[C@H](CCCNC(=N)N)NC1=O)C(=O)N[C@@H](Cc1c[nH]cn1)C(=O)N[C@@H](CCCNC(=N)N)C(=O)N[C@@H](CCCNC(=N)N)C(=O)N[C@H](C(=O)N[C@@H](CC(N)=O)C(=O)O)CSSC[C@H](NC(=O)[C@H](Cc1ccccc1)NC(=O)CN)C(=O)N[C@@H](Cc1c[nH]c3ccccc13)C(=O)N[C@@H](CCCNC(=N)N)C(=O)N[C@@H](C(C)C)C(=O)N2 [compound 315] (H-GFCWRVCVYRNGVRKCHRRCN-OH; disulfide 3-20, 7-16 (inferred); N-terminus and C-terminus assumed) | 0.07
CC(C)[C@@H]1NC(=O)CNC(=O)[C@H](CC(N)=O)NC(=O)[C@H](CCCNC(=N)N)NC(=O)[C@H](Cc2ccc(O)cc2)NC(=O)[C@H](C(C)C)NC(=O)[C@@H]2CSSC[C@H](NC(=O)[C@H](CO)NC(=O)[C@H](CCCNC(=N)N)NC1=O)C(=O)N[C@@H](Cc1c[nH]cn1)C(=O)N[C@@H](CCCNC(=N)N)C(=O)N[C@@H](CCCNC(=N)N)C(=O)N[C@H](C(=O)N[C@@H](CC(N)=O)C(=O)O)CSSC[C@H](NC(=O)[C@H](Cc1ccccc1)NC(=O)CN)C(=O)N[C@@H](Cc1c[nH]c3ccccc13)C(=O)N[C@@H](CCCNC(=N)N)C(=O)N[C@@H](C(C)C)C(=O)N2 [compound 316] (H-GFCWRVCVYRNGVRSCHRRCN-OH; disulfide 3-20, 7-16 (inferred); N-terminus and C-terminus assumed) | 0.1
CC(C)[C@@H]1NC(=O)CNC(=O)[C@H](CC(N)=O)NC(=O)[C@H](CCCNC(=N)N)NC(=O)[C@H](Cc2ccc(O)cc2)NC(=O)[C@H](C(C)C)NC(=O)[C@@H]2CSSC[C@H](NC(=O)[C@H](C)NC(=O)[C@H](CCCNC(=N)N)NC1=O)C(=O)N[C@@H](Cc1ccc(O)cc1)C(=O)N[C@@H](CCCNC(=N)N)C(=O)N[C@@H](CCCNC(=N)N)C(=O)N[C@H](C(=O)N[C@@H](CC(N)=O)C(=O)O)CSSC[C@H](NC(=O)[C@H](Cc1ccccc1)NC(=O)CN)C(=O)N[C@@H](Cc1c[nH]c3ccccc13)C(=O)N[C@@H](CCCNC(=N)N)C(=O)N[C@@H](C)C(=O)N2 [compound 319] (H-GFCWRACVYRNGVRACYRRCN-OH; disulfide 3-20, 7-16 (inferred); N-terminus and C-terminus assumed) | 0.6
CC(C)[C@@H]1NC(=O)CNC(=O)[C@H](CC(N)=O)NC(=O)[C@H](CCCNC(=N)N)NC(=O)[C@H](Cc2ccc(O)cc2)NC(=O)[C@H](C(C)C)NC(=O)[C@@H]2CSSC[C@H](NC(=O)[C@H](CO)NC(=O)[C@H](CCCNC(=N)N)NC1=O)C(=O)N[C@@H](Cc1ccc(O)cc1)C(=O)N[C@@H](CCCNC(=N)N)C(=O)N[C@@H](CCCNC(=N)N)C(=O)N[C@H](C(=O)N[C@@H](CC(N)=O)C(=O)O)CSSC[C@H](NC(=O)[C@H](Cc1ccccc1)NC(=O)CN)C(=O)N[C@@H](Cc1c[nH]c3ccccc13)C(=O)N[C@@H](CCCNC(=N)N)C(=O)N[C@@H](C)C(=O)N2 [compound 320] (H-GFCWRACVYRNGVRSCYRRCN-OH; disulfide 3-20, 7-16) | 0.12
